The compounds below were run against T1, human histamine H3 receptor (Homo sapiens, UniProt Q9Y5N1) (assay: H3 GTPγS assay (SPA method), histamine H3 in vitro assay). Settings: GTPγ[35S] binding to membranes of cells expressing human H3; antagonist mode with R-γ-Me-Histamine at EC80 (30 nM); in one embodiment HCl salts tested; read-out: Potency (functional potency as indicated by IC50).
T1 construct: host or cells: cells expressing the human H3 receptor
Type: biochemical
Method: H3 GTPγS assay (SPA method) was performed at EuroScreen (Belgium, ES-392-C) using conventional methods. Briefly, cells expressing the human histamine H3 receptor were homogenized in 15 mM Tris-HCl pH 7.5, 2 mM MgCl2, 0.3 mM EDTA, and 1 mM EGTA. Membranes were washed twice in the above tris buffer, collected by centrifugation (40,000×g, 25 min), and re-suspended in 75 mM Tris-HCl pH 7.5, 12.5 mM MgCl2, 0.3 mM EDTA, 1 mM EGTA, and 250 mM sucrose. Membranes were frozen in liquid nitrogen until use. On the day of the assay, membranes were thawed and diluted in assay buffer (20 mM HEPES pH 7.4, 100 mM NaCl, 10 μg/ml saponin, 1 mM MgCl2) to give 500 μg/ml and mixed (v/v) with GDP in assay buffer for a final GDP concentration of 10 μM and incubated on ice for at least 15 min. PVT-WGA beads (Amersham, RPNQ001) were diluted in assay buffer at 50 mg/mL and mixed with GTPγ[^35S] (Amersham, SJ1308) diluted in assay buffer to give ˜25,000 dpm/10 μL and mixed vol/vol just before the start of the reaction. The reaction was started by adding 50 μL of test compound, 20 μL of the membranes:GDP mix, 10 μL of buffer, and 20 μL of the GTPγ[^35S]:beads mix in a 96 well plate Optiplate™ (PerkinElmer, 6005299) covered with topseal (TopCount™, PerkinElmer), mixed with an orbital shaker for 2 min, incubated for 1 hour at room temperature, centrifuged for 10 min at 2000 rpm, incubated for 1 h at room temperature, and counted for 1 min in a TopCount™ reader (PerkinElmer). Dose response curves and IC50 values (concentration to inhibit the reaction by 50%) were calculated by nonlinear regression using XLfit software (IDBS).
For antagonists testing, 10 μL of a reference agonist (R-γ-Me-Histamine) instead of 10 μL buffer was added at a concentration corresponding to the EC80 (30 nM). Control ligands were R-γ-Me-Histamine (Tocris, 0569), Imetit (Sigma, I-135), Thioperamide (Tocris, 0644), and Clobenpropit (Tocris, 0754) diluted in assay buffer.
The compounds provided herein were tested in the histamine H3 in vitro assay. In one embodiment, the respective HCl salts of the compounds provided herein were prepared using standard chemical procedures and tested in the histamine H3 in vitro assay.

T1 sequence (Q9Y5N1 whole entry): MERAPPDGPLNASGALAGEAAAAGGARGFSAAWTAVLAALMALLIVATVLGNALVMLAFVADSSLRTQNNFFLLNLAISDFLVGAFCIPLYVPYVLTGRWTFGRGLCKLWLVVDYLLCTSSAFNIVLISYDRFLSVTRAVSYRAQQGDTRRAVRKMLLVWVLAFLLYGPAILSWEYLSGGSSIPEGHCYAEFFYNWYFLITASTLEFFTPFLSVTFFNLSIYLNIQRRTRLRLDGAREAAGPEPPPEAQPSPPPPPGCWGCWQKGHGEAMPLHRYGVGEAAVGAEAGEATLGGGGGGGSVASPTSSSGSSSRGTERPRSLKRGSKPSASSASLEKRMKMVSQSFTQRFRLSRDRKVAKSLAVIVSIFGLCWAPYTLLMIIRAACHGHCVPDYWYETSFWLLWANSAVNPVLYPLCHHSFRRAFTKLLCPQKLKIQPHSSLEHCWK

Going from `CNC(=O)c1ccc(Oc2ccc3c(c2)nc2n3CCN(C3CCC3)CC2)nc1` [Compound 50, 6-(3-cyclobutyl-2,3,4,5-tetrahydro-1H-[1,4]diazepino[1,7-a]benzimidazol-9-yloxy)-N-methylnicotinamide] to `CNC(=O)c1ccc(Oc2ccc3nc4n(c3c2)CCN(C2CCC2)CC4)nc1` [Compound 76], the IC50 rises from ≤ 10 nM to ≥ 1000 nM.

`N#Cc1ccc(NC(=O)c2ccc3c(c2)nc2n3CCN(C3CCC3)CC2)cc1` [Compound 61, 3-cyclobutyl-N-(4-cyanophenyl)-2,3,4,5-tetrahydro-1H-[1,4]diazepino[1,7-a]benzimidazole-9-carboxamide] and `N#Cc1ccc(C(=O)N2CCCC(c3ccc4c(c3)nc3n4CCN(C4CCC4)CC3)C2)cc1` (centres unmarked) [Compound 172, 4-(3-(3-cyclobutyl-2,3,4,5-tetrahydro-1H-benzo[4,5]imidazo[1,2-d][1,4]diazepin-8-yl)piperidine-1-carbonyl)benzonitrile] cannot be ordered by IC50: ≤ 100 nM for the first, ≤ 100 nM for the second.

`COc1nccc(-c2ccc3c(c2)nc2n3CCN(C3CCC3)CC2)n1` [Compound 132, 3-cyclobutyl-8-(2-methoxypyrimidin-4-yl)-2,3,4,5-tetrahydro-1H-benzo[4,5]imidazo[1,2-d][1,4]diazepine] and `c1cc2nc(-c3ccc4c(c3)nc3n4CCN(C4CCC4)CC3)cnc2[nH]1` [Compound 199, 3-cyclobutyl-8-(5H-pyrrolo[2,3-b]pyrazin-2-yl)-2,3,4,5-tetrahydro-1H-benzo[4,5]imidazo[1,2-d][1,4]diazepine] cannot be ordered by IC50: ≤ 100 nM for the first, ≤ 100 nM for the second.

`CN(C)CCc1ccc2c(c1)nc1n2CCN(C2CCC2)CC1` [Compound 139, 2-(3-cyclobutyl-2,3,4,5-tetrahydro-1H-benzo[4,5]imidazo[1,2-d][1,4]diazepin-8-yl)-N,N-dimethylethanamine] and `FC1(F)CCN(Cc2ccc3c(c2)nc2n3CCN(C3CCC3)CC2)C1` [Compound 166, 3-cyclobutyl-8-((3,3-difluoropyrrolidin-1-yl)methyl)-2,3,4,5-tetrahydro-1H-benzo[4,5]imidazo[1,2-d][1,4]diazepine] cannot be ordered by IC50: ≤ 100 nM for the first, ≤ 10 nM for the second.

`c1cc2nc3n(c2cc1-c1cn[nH]c1)CCN(C1CCC1)CC3` [Compound 49, 3-cyclobutyl-9-(1H-pyrazol-4-yl)-2,3,4,5-tetrahydro-1H-[1,4]diazepino[1,7-a]benzimidazole] and `NCc1ccc(-c2ccc3nc4n(c3c2)CCN(C2CCC2)CC4)cc1` [Compound 44] cannot be ordered by IC50: ≤ 1000 nM for the first, ≤ 100 nM for the second.

`c1cncc(-c2ccc3c(c2)nc2n3CCN(C3CCC3)CC2)c1` [Compound 115, 3-cyclobutyl-9-(pyridin-3-yl)-2,3,4,5-tetrahydro-1H-[1,4]diazepino[1,7-a]benzimidazole] and `c1cnc2[nH]cc(-c3ccc4c(c3)nc3n4CCN(C4CCC4)CC3)c2c1` [Compound 31] cannot be ordered by IC50: ≤ 100 nM for the first, ≤ 10 nM for the second.

`c1cn(-c2ccc3c(c2)nc2n3CCN(C3CCC3)CC2)nn1` [Compound 150, 3-cyclobutyl-8-(1H-1,2,3-triazol-1-yl)-2,3,4,5-tetrahydro-1H-benzo[4,5]imidazo[1,2-d][1,4]diazepine] and `c1cnc2c(c1)ccn2-c1ccc2c(c1)nc1n2CCN(C2CCC2)CC1` [Compound 70, 3-cyclobutyl-9-(1H-pyrrolo[2,3-b]pyridin-1-yl)-2,3,4,5-tetrahydro-1H-[1,4]diazepino[1,7-a]benzimidazole] cannot be ordered by IC50: ≤ 100 nM for the first, ≤ 100 nM for the second.

`c1cc2c(cc1-c1cncc(N3CCCC3)n1)nc1n2CCN(C2CCC2)CC1` [Compound 94, 3-cyclobutyl-9-(6-(pyrrolidin-1-yl)pyrazin-2-yl)-2,3,4,5-tetrahydro-1H-[1,4]diazepino[1,7-a]benzimidazole] and `c1cc2c(cc1-c1ccc(N3CCCC3)nn1)nc1n2CCN(C2CCC2)CC1` [Compound 133, 3-cyclobutyl-8-(6-(pyrrolidin-1-yl)pyridazin-3-yl)-2,3,4,5-tetrahydro-1H-benzo[4,5]imidazo[1,2-d][1,4]diazepine] cannot be ordered by IC50: ≤ 100 nM for the first, ≤ 100 nM for the second.

`c1cc2ncc(-c3ccc4c(c3)nc3n4CCN(C4CCC4)CC3)cc2[nH]1` [Compound 200, 3-cyclobutyl-8-(1H-pyrrolo[3,2-b]pyridin-6-yl)-2,3,4,5-tetrahydro-1H-benzo[4,5]imidazo[1,2-d][1,4]diazepine] and `c1cc2ncc(-c3ccc4c(c3)nc3n4CCN(C4CCC4)CC3)cc2o1` [Compound 201, 6-(3-cyclobutyl-2,3,4,5-tetrahydro-1H-benzo[4,5]imidazo[1,2-d][1,4]diazepin-8-yl)furo[3,2-b]pyridine] cannot be ordered by IC50: ≤ 10 nM for the first, ≤ 10 nM for the second.

`FC1(F)CCN(Cc2ccc3c(c2)nc2n3CCN(C3CCC3)CC2)CC1` [Compound 160, 3-cyclobutyl-8-((4,4-difluoropiperidin-1-yl)methyl)-2,3,4,5-tetrahydro-1H-benzo[4,5]imidazo[1,2-d][1,4]diazepine] and `FC1(F)CCCN(Cc2ccc3c(c2)nc2n3CCN(C3CCC3)CC2)C1` [Compound 162, 3-cyclobutyl-8-((3,3-difluoropiperidin-1-yl)methyl)-2,3,4,5-tetrahydro-1H-benzo[4,5]imidazo[1,2-d][1,4]diazepine] cannot be ordered by IC50: ≤ 10 nM for the first, ≤ 10 nM for the second.

`c1cnc(N2CCc3cc4nc5n(c4cc3C2)CCN(C2CCC2)CC5)nc1` [Compound 193, 9-cyclobutyl-2-(pyrimidin-2-yl)-2,3,4,7,8,9,10,11-octahydro-1H-[1,4]diazepino[1′,7′:1,2]imidazo[4,5-g]isoquinoline] and `c1ccc(CN2Cc3cc4nc5n(c4cc3C2)CCN(C2CCC2)CC5)cc1` [Compound 144, 2-benzyl-8-cyclobutyl-1,2,3,6,7,8,9,10-octahydro-[1,4]diazepino[1′,7′:1,2]imidazo[4,5-f]isoindole] cannot be ordered by IC50: ≤ 100 nM for the first, ≤ 10 nM for the second.

`O=c1[nH]c2ccccc2n1-c1ccc2c(c1)nc1n2CCN(C2CCC2)CC1` [Compound 72, 1-(3-cyclobutyl-2,3,4,5-tetrahydro-1H-[1,4]diazepino[1,7-a]benzimidazol-9-yl)-1H-benzo[d]imidazol-2(3H)-one] and `c1cc2cc(-c3ccc4c(c3)nc3n4CCN(C4CCC4)CC3)ccc2[nH]1` [Compound 4] cannot be ordered by IC50: ≤ 100 nM for the first, ≤ 100 nM for the second.

Compared with `CC1CCC(N2CCc3nc4cc(-c5ccc(C#N)cc5)ccc4n3CC2)CC1` (mixture of isomers) [Compound 37, cis/trans-4-(3-(4-methylcyclohexyl)-2,3,4,5-tetrahydro-1H-[1,4]diazepino[1,7-a]benzimidazol-9-yl)benzonitrile], `O=C1CCc2cc(-c3ccc4c(c3)nc3n4CCN(C4CCC4)CC3)ccc2N1` [Compound 216, 6-(3-cyclobutyl-2,3,4,5-tetrahydro-1H-benzo[4,5]imidazo[1,2-d][1,4]diazepin-8-yl)-3,4-dihydroquinolin-2(1H)-one] is lower in IC50: ≥ 1000 nM for the first, ≤ 10 nM for the second. The second is the more potent here.

`CC(=O)N1CCCC(c2ccc3c(c2)nc2n3CCN(C3CCC3)CC2)C1` (centres unmarked) [Compound 171, 1-(3-(3-cyclobutyl-2,3,4,5-tetrahydro-1H-benzo[4,5]imidazo[1,2-d][1,4]diazepin-8-yl)piperidin-1-yl)ethanone] and `O=C(c1ccc2nc3n(c2c1)CCN(C1CCC1)CC3)N1CCOCC1` [Compound 84] cannot be ordered by IC50: ≤ 10 nM for the first, ≤ 1000 nM for the second.

`CC(C1CCC1)N1CCc2nc3cc(-c4ccc5[nH]ccc5c4)ccc3n2CC1` (centres unmarked) [Compound 10] and `CC(=O)Nc1ccc(-c2ccc3c(c2)nc2n3CCN(Cc3cnc[nH]3)CC2)cc1` [Compound 19] cannot be ordered by IC50: ≥ 1000 nM for the first, ≥ 1000 nM for the second.

`c1ccc2c(c1)CCN(Cc1ccc3c(c1)nc1n3CCN(C3CCC3)CC1)C2` [Compound 163, 3-cyclobutyl-8-((3,4-dihydroisoquinolin-2(1H)-yl)methyl)-2,3,4,5-tetrahydro-1H-benzo[4,5]imidazo[1,2-d][1,4]diazepine] and `c1ccc(N2CCN(c3ccc4c(c3)nc3n4CCN(C4CCC4)CC3)CC2)nc1` [Compound 230, 3-cyclobutyl-8-(4-(pyridin-2-yl)piperazin-1-yl)-2,3,4,5-tetrahydro-1H-benzo[4,5]imidazo[1,2-d][1,4]diazepine] cannot be ordered by IC50: ≤ 10 nM for the first, ≤ 10 nM for the second.

`c1cc2c(cc1N1CCN(C3CCOC3)CC1)nc1n2CCN(C2CCC2)CC1` (racemic) [Compound 101, rac-3-cyclobutyl-9-(4-(tetrahydrofuran-3-yl)piperazin-1-yl)-2,3,4,5-tetrahydro-1H-[1,4]diazepino[1,7-a]benzimidazole] and `c1cnc(Oc2ccc3c(c2)nc2n3CCN(C3CCC3)CC2)cn1` [Compound 51] cannot be ordered by IC50: ≤ 10 nM for the first, ≤ 100 nM for the second.

In the case of `c1cnc(-c2cnc3c(c2)nc2n3CCN(C3CCC3)CC2)cn1` [Compound 236, 7-Aza-3-cyclobutyl-9-(pyrazin-2-yl)-2,3,4,5-tetrahydro-1H-[1,4]diazepino[1,7-a]benzimidazole], the IC50 is reported as ≤ 1000 nM.

Reference: patent US8404670B2 (Sunovion Pharmaceuticals Inc., priority 2009, dated 2013)
